Reference: patent US10450346B2, “Immunotherapy against several tumors of the blood, in particular chronic lymphoid leukemia (CLL)” (Immatics biotechnologies GmbH, priority 2014, dated 2019)

Tests used:
[1] = system: CD8+ T cells of healthy donors; assay: In vitro T-cell priming with aAPCs loaded with peptide/MHC complexes and anti-CD28 antibody; type: cell-based, human; details: pMHC multimer readout
Experimental: In order to obtain information regarding the immunogenicity of the TUMAPs of the present invention, the inventors performed investigations using an in vitro T-cell priming assay based on repeated stimulations of CD8+ T cells with artificial antigen presenting cells (aAPCs) loaded with peptide/MHC complexes and anti-CD28 antibody. […]
Generation of pMHC/anti-CD28 coated beads, T-cell stimulations and readout was performed in a highly defined in vitro system using four different pMHC molecules per stimulation condition and 8 different pMHC molecules per readout condition. […]
800.000 beads/200 μl were coated in 96-well plates in the presence of 4×12.5 ng different biotin-pMHC, washed and 600 ng biotin anti-CD28 were added subsequently in a volume of 200 μl. […] For the pMHC multimer readout using 8 different pMHC molecules per condition, a two-dimensional combinatorial coding approach was used as previously described (Andersen et al., Nat. Protoc. 7 (2012): 891-902) with minor modifications encompassing coupling to 5 different fluorochromes. […] Peptide specific cells were calculated as percentage of total CD8+cells. […] In vitro priming of specific multimer+ CD8+ lymphocytes was detected by comparing to negative control stimulations.

MHC class I = assay: MHC binding assay (peptide-ligand exchange, β2m ELISA); set-up: species or system human; details: yield of UV-exchange reaction
Excerpt: Candidate peptides for T cell based therapies according to the present invention were further tested for their MHC binding capacity (affinity). The individual peptide-MHC complexes were produced by peptide-ligand exchange, where a cleavage-sensitive peptide is cleaved, and exchanged with the peptide of interest as analyzed. Only peptide candidates that can effectively bind and stabilize the peptide-receptive MHC molecules prevent dissociation of the MHC complexes. To determine the yield of the exchange reaction, an ELISA was performed based on the detection of the light chain (β2m) of stabilized MHC complexes. The assay was performed as generally described in Rodenko et al. (Rodenko et al., Nat Protoc. 1 (2006): 1120-1132).
96 well MAXISorp plates (NUNC) were coated over night with 2 ug/ml streptavidin in PBS at room temperature, washed 4× and blocked for 1 h at 37° C. in 2% BSA containing blocking buffer. Refolded HLA-A*0201/MLA-001 monomers served as standards, covering the range of 15-500 ng/ml. Peptide-MHC monomers of the UV-exchange reaction were diluted 100 fold in blocking buffer. Samples were incubated for 1 h at 37° C., washed four times, incubated with 2 ug/ml HRP conjugated anti-β2m for 1 h at 37° C., washed again and detected with TMB solution that is stopped with […]. Absorption was measured at 450 nm. […]

CLL patient CD8+ T cells = assay: HLA:peptide tetramer staining; type: cell-based, human
Experimental: The frequency of peptide-specific CD8^+ T cells was determined by staining with anti-CD8 and HLA:peptide-tetramer-PE

[2] = system: peptide-specific CD8+ T cells of CLL patient PBMC; assay: Intracellular IFN-γ and TNF-α staining; type: cell-based, human; details: peptide stimulated CLL patient PBMC
Experimental: PBMC from CLL patients and healthy volunteers were cultured in RPMI1640 medium (Gibco) supplemented with 10% pooled human serum (PHS, produced in-house), […] β-mercaptoethanol (Roth, Karlsruhe, Germany) and 1% penicillin/streptomycin (GE). For CD8^+ T cell stimulation, PBMC were thawed and pulsed with 1 μg/ml per peptide. Peptide-pulsed PBMC (5-6×10^6 cells/ml) were cultured at 37° C. and 5% CO2 for 12 days. On day 0 and day […] IL-4 (R&D Systems, Minneapolis, Minn., USA) and 5 ng/ml IL-7 (Promokine, Heidelberg, Germany) were added to the culture medium. On days 3, 5, 7 and 9, 2 ng/ml IL-2 (R&D Systems) were added to the culture medium. Peptide-stimulated PBMC were functionally characterized by ELISPOT assays on day 12 and by intracellular cytokine staining on day 13 respectively. For CD4^+ T-cell stimulation, culture was performed as described for CD8^+ T cells with 2 modifications: pulsing was carried out with 10 μg/ml of HLA class II peptide and no IL-4 and IL-7 was added.
The frequency and functionality of peptide-specific CD8^+ T cells was analyzed by intracellular IFN-γ and TNF-α staining. PBMC were pulsed with 1 μg/ml of individual peptide and incubated in the presence of 10 μg/ml Brefeldin A (Sigma, St. Louis, Mo., USA) and 10 μg/ml GolgiStop (BD) for 6-8 h. […] Samples were analyzed on a FACS Canto II.

KFAEEFYSF (listed as Homo sapiens) [SEQ ID NO: 20]
in vitro T-cell responses, positive donors of tested donors [1]: 2 of 5

239 (SENAFYLSP; listed as Homo sapiens) [compound 239]
Peptide exchange (MHC class I binding score) (MHC class I): ++++ (>=75% = ++++)

SSSGLHPPK (listed as Homo sapiens) [SEQ ID NO: 77]
tetramer staining of CD8+ T cells (CLL patient CD8+ T cells): confirmed | intracellular cytokine staining for IFNγ and TNFα [2]: confirmed

229 (FRVGNVQEL; listed as Homo sapiens) [compound 229]
Peptide exchange (MHC class I binding score) (MHC class I): ++++ (>=75% = ++++)
